Measured values from patent US20220289708A1, “SUBSTITUTED N-PHENYL URACILS, SALTS THEREOF AND THEIR USE AS HERBICIDAL AGENTS” (Bayer Aktiengesellschaft, priority 2019, published 2022).

Legend:
Format in all cases: in vivo
[1] = tested on: Abutilon theophrasti; assay: Post-emergence herbicidal action; conditions: rated visually after about 3 weeks vs untreated controls
Method in brief: (§1)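 Greenhouse-grown plants in sandy loam were sprayed at the one-leaf stage, 2 to 3 weeks after sowing, with compounds formulated as WP or EC in water plus 0.5% additive at 600 l/ha, at rates of 20 g/ha and less. Activity was scored visually after about 3 weeks against untreated controls (100% = dead).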

[2] = tested on: Alopecurus myosuroides; assay: Post-emergence herbicidal action; conditions: application rate 20 g/ha, rated visually after about 3 weeks vs untreated controls
Method in brief: as §1

[3] = tested on: Amaranthus retroflexus; assay: Post-emergence herbicidal action; conditions: rated visually after about 3 weeks vs untreated controls
Method in brief: as §1

[4] = tested on: Avena fatua; assay: Post-emergence herbicidal action; conditions: application rate 20 g/ha, rated visually after about 3 weeks vs untreated controls
Method in brief: as §1

[5] = tested on: Digitaria sanguinalis; assay: Post-emergence herbicidal action; conditions: rated visually after about 3 weeks vs untreated controls
Method in brief: as §1

[6] = tested on: Echinochloa crus-galli; assay: Post-emergence herbicidal action; conditions: rated visually after about 3 weeks vs untreated controls
Method in brief: as §1

[7] = tested on: Lolium rigidum; assay: Post-emergence herbicidal action; conditions: application rate 20 g/ha, rated visually after about 3 weeks vs untreated controls
Method in brief: as §1

[8] = tested on: Matricaria inodora; assay: Post-emergence herbicidal action; conditions: rated visually after about 3 weeks vs untreated controls
Method in brief: as §1

[9] = tested on: Pharbitis purpurea; assay: Post-emergence herbicidal action; conditions: rated visually after about 3 weeks vs untreated controls
Method in brief: as §1

[10] = tested on: Setaria viridis; assay: Post-emergence herbicidal action; conditions: application rate 20 g/ha, rated visually after about 3 weeks vs untreated controls
Method in brief: as §1

[11] = tested on: Veronica persica; assay: Post-emergence herbicidal action
Method in brief: as §1

[12] = tested on: Viola tricolor; assay: Post-emergence herbicidal action; conditions: application rate 20 g/ha
Method in brief: as §1

[13] = tested on: Oryza sativa; assay: Post-emergence crop plant compatibility
Method in brief: (§2)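 Greenhouse crop plants in sandy loam sprayed at one-leaf stage (2-3 weeks after sowing) with WP or EC formulations plus 0.5% additive, 600 l/ha water, at 5 g/ha or 20 g/ha. Damage scored visually after about 3 weeks as % versus untreated controls (100% = plants dead).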

[14] = tested on: Zea mays; assay: Post-emergence crop plant compatibility
Method in brief: as §2

[15] = tested on: Polygonum convolvulus; assay: Post-emergence herbicidal action; conditions: application rate 20 g/ha
Method in brief: as §1

[16] = tested on: Abutilon theophrasti; assay: Pre-emergence herbicidal action; conditions: application rate 20 g/ha
Excerpt: (§3) B. Pre-Emergence Herbicidal Action and Crop Plant Compatibility Seeds of monocotyledonous and dicotyledonous weed plants and crop plants were placed in plastic or organic planting pots and covered with soil. The compounds of the invention, formulated in the form of wettable powders (WP) or as emulsion concentrates (EC), were then applied to the surface of the covering soil as aqueous suspension or emulsion with addition of 0.5% additive at a water application rate equivalent to 600 l/ha (converted). After the treatment, the pots were placed in a greenhouse and kept under good growth conditions for the test plants. After about 3 weeks, the effect of the preparations was scored visually in comparison with untreated controls as percentages. For example, 100% activity=the plants have died, 0% activity=like control plants. Tables B1 to B13 below show the effects of selected compounds of the general formula (I) according to Tables I.1 to I.36 on various harmful plants and at an application rate corresponding to 80 g/ha or less, which were obtained by the experimental procedure mentioned above.

[17] = tested on: Alopecurus myosuroides; assay: Pre-emergence herbicidal action; conditions: application rate 80 g/ha
Excerpt: as §3

[18] = tested on: Amaranthus retroflexus; assay: Pre-emergence herbicidal action; conditions: application rate 20 g/ha
Excerpt: as §3

[19] = tested on: Avena fatua; assay: Pre-emergence herbicidal action; conditions: application rate 80 g/ha
Excerpt: as §3

[20] = tested on: Digitaria sanguinalis; assay: Pre-emergence herbicidal action; conditions: application rate 20 g/ha
Excerpt: as §3

[21] = tested on: Echinochloa crus-galli; assay: Pre-emergence herbicidal action
Excerpt: as §3

[22] = tested on: Lolium rigidum; assay: Pre-emergence herbicidal action; conditions: application rate 80 g/ha
Excerpt: as §3

[23] = tested on: Matricaria inodora; assay: Pre-emergence herbicidal action; conditions: application rate 20 g/ha
Excerpt: as §3

[24] = tested on: Pharbitis purpurea; assay: Pre-emergence herbicidal action; conditions: application rate 20 g/ha
Excerpt: as §3

[25] = tested on: Polygonum convolvulus; assay: Pre-emergence herbicidal action; conditions: application rate 20 g/ha
Excerpt: as §3

[26] = tested on: Setaria viridis; assay: Pre-emergence herbicidal action; conditions: application rate 20 g/ha
Excerpt: as §3

[27] = tested on: Veronica persica; assay: Pre-emergence herbicidal action; conditions: application rate 20 g/ha
Excerpt: as §3

[28] = tested on: Viola tricolor; assay: Pre-emergence herbicidal action; conditions: application rate 20 g/ha
Excerpt: as §3

[29] = tested on: Zea mays; assay: Pre-emergence crop plant compatibility; conditions: application rate 20 g/ha
Excerpt: B. Pre-Emergence Herbicidal Action and Crop Plant Compatibility
as §3, with “Seeds” for “B. Pre-Emergence Herbicidal Action and Crop Plant Compatibility Seeds”, “plants.” for “plants. Tables B1 to B13 below show the effects of selected compounds of the general formula (I) according to Tables I.1 to I.36 on various harmful plants and at an application rate corresponding to 80 g/ha or less, which were obtained by the experimental procedure mentioned above.”
Tables B14 to B16 below show the crop plant compatibilities of selected compounds of the general formula (I) according to Tables I.1 to I.36 at an application rate corresponding to 20 g/ha, which were obtained in experiments according to the experimental procedure mentioned above. Here, the observed effects on selected crop plants are stated in comparison to the untreated controls (values in %).

[30] = tested on: Triticum aestivum; assay: Post-emergence crop plant compatibility; conditions: application rate 5 g/ha
Method in brief: as §2

Compound | Amaranthus retroflexus (efficacy in %) ([3]; application rate 20 g/ha) [%] | Digitaria sanguinalis (efficacy in %) ([5]; application rate 20 g/ha) [%] | Echinochloa crus-galli (efficacy in %) ([6]; application rate 20 g/ha) [%] | Matricaria inodora (efficacy in %) ([8]; application rate 20 g/ha) [%] | Pharbitis purpurea (efficacy in %) ([9]; application rate 20 g/ha) [%] | Setaria viridis (efficacy in %) [10] [%] | Veronica persica (efficacy in %) ([11]; application rate 20 g/ha) [%] | Viola tricolor (efficacy in %) [12] [%] | Oryza sativa (efficacy in %) ([13]; application rate 20 g/ha) [%] | Abutilon theophrasti (efficacy in %) ([1]; application rate 5 g/ha) [%] | Amaranthus retroflexus (efficacy in %) ([3]; application rate 5 g/ha) [%] | Echinochloa crus-galli (efficacy in %) ([6]; application rate 5 g/ha) [%] | Pharbitis purpurea (efficacy in %) ([9]; application rate 5 g/ha) [%] | Veronica persica (efficacy in %) ([11]; application rate 5 g/ha) [%] | Oryza sativa (efficacy in %) ([13]; application rate 5 g/ha) [%] | Abutilon theophrasti (efficacy in %) [16] [%] | Alopecurus myosuroides (efficacy in %) [17] [%] | Amaranthus retroflexus (efficacy in %) [18] [%] | Avena fatua (efficacy in %) [19] [%] | Digitaria sanguinalis (efficacy in %) [20] [%] | other results
CCOCCOC(=O)COc1ncccc1Oc1cc(-n2c(=O)cc(C(F)(F)F)n(C)c2=O)c(F)cc1[N+](=O)[O-] [I.14-2] | 100 | 100 | 100 | 100 | 100 | 100 | 100 | 100 | 10 | – | – | – | – | – | – | – | – | – | – | – | Abutilon theophrasti (efficacy in %) ([1]; application rate 20 g/ha): 100%; Alopecurus myosuroides (efficacy in %) [2]: 100%; Avena fatua (efficacy in %) [4]: 100%; Lolium rigidum (efficacy in %) [7]: 90%; Zea mays (efficacy in %) ([14]; application rate 5 g/ha): 20%
COCCOCCOC(=O)COc1ncccc1Oc1cc(-n2c(=O)cc(C(F)(F)F)n(C)c2=O)c(F)cc1[N+](=O)[O-] [I.14-23] | 100 | 100 | 100 | 100 | 100 | 100 | 100 | 100 | 10 | – | – | – | – | – | – | – | – | – | – | – | Abutilon theophrasti (efficacy in %) ([1]; application rate 20 g/ha): 100%; Polygonum convolvulus (efficacy in %) [15]: 100%; Zea mays (efficacy in %) ([14]; application rate 20 g/ha): 10%
Cn1c(C(F)(F)F)cc(=O)n(-c2cc(Oc3cccnc3OCC(=O)OC3COC3)c([N+](=O)[O-])cc2F)c1=O [I.14-115] | 100 | 100 | 100 | 100 | 100 | 100 | 100 | 100 | 20 | – | – | – | – | – | – | – | – | – | – | – | Alopecurus myosuroides (efficacy in %) [2]: 100%; Avena fatua (efficacy in %) [4]: 80%; Polygonum convolvulus (efficacy in %) [15]: 100%; Zea mays (efficacy in %) ([14]; application rate 5 g/ha): 20%
Cn1c(C(F)(F)F)cc(=O)n(-c2cc(Oc3cccnc3OCC(=O)OCc3ccccn3)c(Cl)cc2F)c1=O [I.15-286] | – | – | – | – | – | – | – | – | – | 100 | 100 | 100 | 100 | 100 | 20 | 100 | 100 | 100 | 100 | 100 | Digitaria sanguinalis (efficacy in %) ([5]; application rate 5 g/ha): 100%; Matricaria inodora (efficacy in %) ([8]; application rate 5 g/ha): 90%; Echinochloa crus-galli (efficacy in %) ([21]; application rate 20 g/ha): 80%; Lolium rigidum (efficacy in %) [22]: 100%; Matricaria inodora (efficacy in %) [23]: 100%; Pharbitis purpurea (efficacy in %) [24]: 100%; Polygonum convolvulus (efficacy in %) [25]: 100%; Setaria viridis (efficacy in %) [26]: 100%; Veronica persica (efficacy in %) [27]: 100%; Viola tricolor (efficacy in %) [28]: 100%; Zea mays (efficacy in %) [29]: 20%
Cn1c(C(F)(F)F)cc(=O)n(-c2cc(Oc3cccnc3OCC(=O)OCc3cccnn3)c(Cl)cc2F)c1=O [I.15-301] | – | – | – | – | – | – | – | – | – | 100 | 100 | 100 | 100 | 100 | 20 | 100 | 100 | 100 | 100 | 100 | Echinochloa crus-galli (efficacy in %) ([21]; application rate 20 g/ha): 80%; Lolium rigidum (efficacy in %) [22]: 100%; Matricaria inodora (efficacy in %) [23]: 100%; Pharbitis purpurea (efficacy in %) [24]: 100%; Polygonum convolvulus (efficacy in %) [25]: 100%; Setaria viridis (efficacy in %) [26]: 100%; Veronica persica (efficacy in %) [27]: 80%; Viola tricolor (efficacy in %) [28]: 100%; Zea mays (efficacy in %) [29]: 0%
Cn1c(C(F)(F)F)cc(=O)n(-c2cc(Oc3cccnc3OCC(=O)OCc3ccc(C(F)(F)F)nc3)c(Cl)cc2F)c1=O [I.15-350, [6-(Trifluoromethyl)pyridin-3-yl]methyl [(3-{2-chloro-4-fluoro-5-[3-methyl-2,6-dioxo-4-(trifluoromethyl)-3,6-dihydropyrimidin-1(2H)-yl]phenoxy}pyridin-2-yl)oxy]acetate] | – | – | – | – | – | – | – | – | – | 100 | 100 | 100 | 100 | 100 | 20 | 100 | 100 | 100 | 100 | 100 | Matricaria inodora (efficacy in %) ([8]; application rate 5 g/ha): 80%; Triticum aestivum (efficacy in %) [30]: 20%; Echinochloa crus-galli (efficacy in %) ([21]; application rate 80 g/ha): 100%; Lolium rigidum (efficacy in %) [22]: 100%; Matricaria inodora (efficacy in %) [23]: 100%; Pharbitis purpurea (efficacy in %) [24]: 100%; Polygonum convolvulus (efficacy in %) [25]: 100%; Setaria viridis (efficacy in %) [26]: 100%; Veronica persica (efficacy in %) [27]: 100%; Viola tricolor (efficacy in %) [28]: 100%; Zea mays (efficacy in %) [29]: 0%
